Measurements: US20250136578A1 (Kolm Therapeutics Inc., priority 2023, published 2025)
Like-named read-outs stand apart in the source and are kept apart here.

Experiments:
AR / CBP ternary complex = AR / CBP ternary complex (Homo sapiens, UniProt P10275+Q92793); experiment: Ternary complex formation assay (sandwich ELISA, AR capture, CBP antibody detection) in VCaP cell lysates; format: cell-based
How it was run: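 Sandwich ELISA: plates were coated with anti-AR antibody (AR441) and given lysates of VCaP cells treated 1.5 h with bifunctional compound in charcoal-stripped serum. Co-captured CBP or p300 was probed with rabbit mAbs and HRP secondary. Chemifluorescent signal (ex 570/em 585) was read at 0, 5 and 15 min.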

VCaP cells = experiment: VCaP growth inhibition assay (CTG); format: cell-based; conditions: Homo sapiens, 216 h, 30 pM R1881, 9 days
How it was run: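 Growth was measured by CTG luminescence after a 9-day exposure of VCaP cells to compound (final 10 fM–100 nM, fivefold steps) in the presence of 30 pM final R1881, in phenol red-free DMEM/5% CSS. IC50 values were derived by nonlinear 4-parameter regression of RLU against concentration.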

[1] = treated 1.5 hours, rabbit CBP or p300 antibody detection, average, read-out: Average Ternary Complex

Chain of AR / CBP ternary complex (P10275 whole entry): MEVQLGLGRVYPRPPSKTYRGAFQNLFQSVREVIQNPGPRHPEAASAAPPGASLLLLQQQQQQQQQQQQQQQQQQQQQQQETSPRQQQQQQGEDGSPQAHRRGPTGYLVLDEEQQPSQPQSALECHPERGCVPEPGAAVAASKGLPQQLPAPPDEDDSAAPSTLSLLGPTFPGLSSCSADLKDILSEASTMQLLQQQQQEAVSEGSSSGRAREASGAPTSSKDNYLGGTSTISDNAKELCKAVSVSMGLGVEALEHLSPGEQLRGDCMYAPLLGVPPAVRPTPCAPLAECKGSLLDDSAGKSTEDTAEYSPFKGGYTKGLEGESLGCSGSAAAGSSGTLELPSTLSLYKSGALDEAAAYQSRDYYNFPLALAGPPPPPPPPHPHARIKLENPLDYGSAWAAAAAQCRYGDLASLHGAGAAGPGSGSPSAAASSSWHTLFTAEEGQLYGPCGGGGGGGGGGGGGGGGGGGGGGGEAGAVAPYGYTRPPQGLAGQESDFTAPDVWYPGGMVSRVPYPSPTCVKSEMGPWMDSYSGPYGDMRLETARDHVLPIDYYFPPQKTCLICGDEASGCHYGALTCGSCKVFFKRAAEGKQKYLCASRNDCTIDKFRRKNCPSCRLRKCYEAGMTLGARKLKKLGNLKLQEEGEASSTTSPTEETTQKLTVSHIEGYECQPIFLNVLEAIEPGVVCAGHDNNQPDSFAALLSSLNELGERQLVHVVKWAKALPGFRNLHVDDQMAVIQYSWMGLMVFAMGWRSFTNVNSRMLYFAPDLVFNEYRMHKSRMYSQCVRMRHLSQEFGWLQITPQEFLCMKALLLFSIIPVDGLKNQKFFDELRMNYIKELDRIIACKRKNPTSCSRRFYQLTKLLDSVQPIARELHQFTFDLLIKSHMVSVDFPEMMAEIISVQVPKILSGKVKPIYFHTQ
Chain of AR / CBP ternary complex (Q92793 2-2442): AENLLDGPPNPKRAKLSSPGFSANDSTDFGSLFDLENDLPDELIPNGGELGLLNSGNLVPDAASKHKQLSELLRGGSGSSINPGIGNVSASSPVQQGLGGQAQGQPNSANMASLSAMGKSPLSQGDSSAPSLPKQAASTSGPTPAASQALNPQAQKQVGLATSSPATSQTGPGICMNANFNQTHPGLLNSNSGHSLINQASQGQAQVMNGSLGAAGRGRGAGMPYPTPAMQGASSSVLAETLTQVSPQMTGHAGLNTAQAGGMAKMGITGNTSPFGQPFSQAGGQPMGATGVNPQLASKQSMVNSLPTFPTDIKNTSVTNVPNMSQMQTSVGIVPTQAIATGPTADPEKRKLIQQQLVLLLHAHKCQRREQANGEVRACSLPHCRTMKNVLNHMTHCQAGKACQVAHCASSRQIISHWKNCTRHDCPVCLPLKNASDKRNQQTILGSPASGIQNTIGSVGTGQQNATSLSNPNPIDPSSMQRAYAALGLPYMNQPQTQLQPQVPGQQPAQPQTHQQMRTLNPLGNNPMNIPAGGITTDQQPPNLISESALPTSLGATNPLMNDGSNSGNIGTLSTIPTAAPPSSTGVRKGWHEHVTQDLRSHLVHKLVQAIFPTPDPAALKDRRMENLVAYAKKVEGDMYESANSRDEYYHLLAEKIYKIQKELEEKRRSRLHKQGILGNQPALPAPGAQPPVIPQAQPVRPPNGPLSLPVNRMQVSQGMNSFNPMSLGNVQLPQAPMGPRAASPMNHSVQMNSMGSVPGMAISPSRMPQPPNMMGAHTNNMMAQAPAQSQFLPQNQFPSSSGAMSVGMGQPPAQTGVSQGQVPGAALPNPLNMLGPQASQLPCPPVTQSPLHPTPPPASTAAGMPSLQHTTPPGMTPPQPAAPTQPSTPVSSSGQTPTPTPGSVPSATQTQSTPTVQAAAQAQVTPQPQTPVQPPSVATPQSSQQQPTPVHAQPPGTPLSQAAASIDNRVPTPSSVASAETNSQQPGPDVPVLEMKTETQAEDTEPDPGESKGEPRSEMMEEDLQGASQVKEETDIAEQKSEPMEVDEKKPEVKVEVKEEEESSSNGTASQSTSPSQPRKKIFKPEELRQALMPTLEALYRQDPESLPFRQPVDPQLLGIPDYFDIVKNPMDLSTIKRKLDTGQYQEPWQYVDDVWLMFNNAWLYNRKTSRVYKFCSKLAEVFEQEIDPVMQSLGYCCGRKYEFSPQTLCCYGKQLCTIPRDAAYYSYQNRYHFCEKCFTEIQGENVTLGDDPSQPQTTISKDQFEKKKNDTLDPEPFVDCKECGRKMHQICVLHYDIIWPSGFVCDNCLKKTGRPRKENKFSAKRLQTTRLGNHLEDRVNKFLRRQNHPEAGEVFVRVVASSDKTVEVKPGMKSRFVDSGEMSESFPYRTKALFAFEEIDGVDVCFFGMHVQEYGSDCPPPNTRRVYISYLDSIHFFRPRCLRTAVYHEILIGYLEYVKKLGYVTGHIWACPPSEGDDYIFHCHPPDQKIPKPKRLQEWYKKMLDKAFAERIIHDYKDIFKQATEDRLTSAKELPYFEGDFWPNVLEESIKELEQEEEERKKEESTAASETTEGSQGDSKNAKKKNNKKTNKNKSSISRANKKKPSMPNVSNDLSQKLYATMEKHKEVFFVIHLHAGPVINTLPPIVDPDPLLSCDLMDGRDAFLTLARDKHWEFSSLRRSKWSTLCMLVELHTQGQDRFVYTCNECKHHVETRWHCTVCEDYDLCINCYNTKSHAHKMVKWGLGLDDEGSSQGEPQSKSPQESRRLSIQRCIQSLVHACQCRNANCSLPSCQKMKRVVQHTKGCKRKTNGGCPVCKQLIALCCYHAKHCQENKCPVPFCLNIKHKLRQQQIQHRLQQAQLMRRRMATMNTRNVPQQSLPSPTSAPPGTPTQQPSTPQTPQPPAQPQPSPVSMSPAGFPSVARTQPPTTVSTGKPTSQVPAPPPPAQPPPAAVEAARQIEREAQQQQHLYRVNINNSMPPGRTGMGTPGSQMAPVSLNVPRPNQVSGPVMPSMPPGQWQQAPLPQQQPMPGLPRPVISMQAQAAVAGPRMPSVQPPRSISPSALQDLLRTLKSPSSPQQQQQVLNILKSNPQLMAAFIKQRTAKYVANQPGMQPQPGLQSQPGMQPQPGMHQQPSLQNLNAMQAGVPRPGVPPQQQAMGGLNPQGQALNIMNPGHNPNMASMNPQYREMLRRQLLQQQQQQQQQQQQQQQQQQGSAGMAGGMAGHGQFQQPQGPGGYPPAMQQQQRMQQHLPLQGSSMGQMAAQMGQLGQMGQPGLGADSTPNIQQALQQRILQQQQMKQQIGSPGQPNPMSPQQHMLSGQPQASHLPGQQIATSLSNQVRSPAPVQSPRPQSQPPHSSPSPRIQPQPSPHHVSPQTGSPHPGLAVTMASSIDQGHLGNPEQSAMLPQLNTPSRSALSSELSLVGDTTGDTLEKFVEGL

SMILES | EC50 (AR / CBP ternary complex; [1]) [nM] | IC50 (VCaP cells) [nM] | EC50 (AR / CBP ternary complex; read-out: Average Ternary Complex, treated 1.5 hours, rabbit CBP or p300 antibody detection) [nM]
CC(=O)N1CCc2c(c(N3CCCc4cc(-c5ccn(C)n5)c(C(F)F)cc43)nn2C2CCN(CC3CCN(c4ccc(C(=O)N[C@H]5CC[C@H](Oc6ccc(C#N)c(Cl)c6)CC5)nn4)CC3)CC2)C1 [Compound 254, 6-[4-[[4-[5-acetyl-3-[7-(difluoromethyl)-6-(1-methylpyrazol-3-yl)-3,4-dihydro-2H-quinolin-1-yl]-6,7-dihydro-4H-pyrazolo[4,3-c]pyridin-1-yl]-1-piperidyl]methyl]-1-piperidyl]-N-[4-(3-chloro-4-cyano-phenoxy)cyclohexyl]pyridazine-3-carboxamide] | < 1 | ≤ 0.1 | 
CC(=O)N1CCc2c(c(N3CCCc4cc(-c5cnn(C)c5)c(C(F)F)cc43)nn2C2CCC3(CC2)CN(C2CCN(c4ccc(C(=O)N[C@H]5CC[C@H](Oc6ccc(C#N)c(Cl)c6)CC5)nn4)CC2)C3)C1 [Compound 238, 6-[4-[7-[5-acetyl-3-[7-(difluoromethyl)-6-(1-methylpyrazol-4-yl)-3,4-dihydro-2H-quinolin-1-yl]-6,7-dihydro-4H-pyrazolo[4,3-c]pyridin-1-yl]-2-azaspiro[3.5]nonan-2-yl]-1-piperidyl]-N-[4-(3-chloro-4-cyano-phenoxy)cyclohexyl]pyridazine-3-carboxamide] | < 1 | ≤ 0.1 | 
CC(=O)N1CCc2c(c(-c3cccc4cc(-c5cnn(C)c5)ncc34)nn2C2CCN(CC3CCN(c4ccc(C(=O)N[C@H]5CC[C@H](Oc6ccc(C#N)c(Cl)c6)CC5)nn4)CC3)CC2)C1 [Compound 32, 6-[4-[[4-[5-acetyl-3-[3-(1-methylpyrazol-4-yl)-8-isoquinolyl]-6,7-dihydro-4H-pyrazolo[4,3-c]pyridin-1-yl]-1-piperidyl]methyl]-1-piperidyl]-N-[4-(3-chloro-4-cyano-phenoxy)cyclohexyl]pyridazine-3-carboxamide] | < 1 | ≤ 0.1 | 
Cc1cc2c(N3CCN(C)c4cc(-c5cnn(C)c5)c(C#N)cc43)cc(OCCOC3CCN(c4ccc(C(=O)N[C@H]5CC[C@H](Oc6ccc(C#N)c(Cl)c6)CC5)nn4)CC3)cc2n(C)c1=O [Compound 39, N-[4-(3-chloro-4-cyano-phenoxy)cyclohexyl]-6-[4-[2-[[5-[7-cyano-4-methyl-6-(1-methylpyrazol-4-yl)-2,3-dihydroquinoxalin-1-yl]-1,3-dimethyl-2-oxo-7-quinolyl]oxy]ethoxy]-1-piperidyl]pyridazine-3-carboxamide] | < 1 | ≤ 0.1 | 
CC(=O)N1CCc2c(c(-c3cccc4cc(-c5cnn(C)c5)ncc34)nn2C2CCN(CC3CCN(c4ccc(C(=O)N[C@H]5CC[C@H](Oc6ccc(C#N)c(Cl)c6)CC5)nn4)CC3(C)C)CC2)C1 (stereo partly shown) [Compound 280] | < 1 | ≤ 0.1 | 
CC(=O)N1CCc2c(c(-c3cccc4cc(-c5ccc(CCC6CC7(C6)CN(c6ccc(C(=O)N[C@H]8CC[C@H](Oc9ccc(C#N)c(Cl)c9)CC8)nn6)C7)nc5)ncc34)nn2C2CCOCC2)C1 [Compound 48] |  | ≤ 0.1 | < 1
CC(=O)N1CCc2c(c(N3CCCc4cc(-c5cnn(C)c5)c(C(F)F)cc43)nn2[C@H]2CC[C@@H](OC3CCN(c4ccc(C(=O)N[C@H]5CC[C@H](Oc6ccc(C#N)c(Cl)c6)CC5)nn4)CC3)CC2)C1 [Compound 204, 6-[4-[4-[5-acetyl-3-[7-(difluoromethyl)-6-(1-methylpyrazol-4-yl)-3,4-dihydro-2H-quinolin-1-yl]-6,7-dihydro-4H-pyrazolo[4,3-c]pyridin-1-yl]cyclohexoxy]-1-piperidyl]-N-[4-(3-chloro-4-cyano-phenoxy)cyclohexyl]pyridazine-3-carboxamide] | < 1 | ≤ 0.1 | 
CC(=O)N1CCc2c(c(-c3cccc4cc(-c5ccc(CC6CCN(c7ccc(C(=O)N[C@H]8CC[C@H](Oc9ccc(C#N)c(Cl)c9)CC8)nn7)CC6)nc5)ncc34)nn2C2CCOCC2)C1 [Compound 23, 6-[4-[[5-[8-(5-acetyl-1-tetrahydropyran-4-yl-6,7-dihydro-4H-pyrazolo[4,3-c]pyridin-3-yl)-3-isoquinolyl]-2-pyridyl]methyl]-1-piperidyl]-N-[4-(3-chloro-4-cyano-phenoxy)cyclohexyl]pyridazine-3-carboxamide] | < 1 | 0.1 to 1 | 
